Source: patent publication US20170020867A1 (priority 2015, published 2017)
“Also recorded” adds a separate entry of the source.

Tests used:
[1] = system: patients with moderate to severe active Crohn's disease; assay: Phase IIa clinical trial: corticosteroids decrease; assay type: in vivo, human; details: among patients who maintained corticosteroids during the study
From the text: Fifteen patients were on corticosteroids prior to study entry.

[2] = system: patients with moderate to severe active Crohn's disease; details: human, in vivo
[3] = system: C Reactive Protein (CRP) level; assay: Phase IIa clinical trial: C Reactive Protein (CRP) level; assay type: in vivo, human
[4] = system: patients with moderate to severe active Crohn's disease; assay: Phase IIa clinical trial: Crohn's Disease Activity Index (CDAI)
[5] = system: human cord blood mast cells; details: cited from earlier work
[6] = system: patients with moderate to severe active Crohn's disease; assay: Phase IIa clinical trial: safety
[7] = week 8, OC dataset, ITT population, All
[8] = week 4, Observed Cases, ITT population
[9] = week 8, Observed Cases, ITT population
[10] = week 8, Observed Cases, ITT population, listed as masitinib
[11] = week 8, patients with CDAI >350 at baseline, ITT population
[12] = week 8, patients with CDAI >350 at baseline, ITT population, listed as masitinib

## Cc1ccc(NC(=O)c2ccc(CN3CCN(C)CC3)cc2)cc1Nc1nc(-c2cccnc2)cs1 [Masitinib, 4-(4-methylpiperazin-1-ylmethyl)-N-[4-methyl-3-(4-pyridin-3ylthiazol-2-ylamino)phenyl]benzamide]
[1]
  patients whose corticosteroid dose was decreased during study: 50%
[2]
  death: no death
[2]; 8 weeks
  patients with a serious adverse event: 44%
[3]; patients previously treated with anti-TNF
  CRP level change from baseline: −30%
[3]; [7]
  CRP absolute change, Median: -19.0 mg/L
  CRP mean absolute change ± SD: -19.7 ± 21.8 mg/L
[4]; 4 weeks after the initiation of treatment
  mean CDAI decrease: 80 units
[4]; after the first 8-week period
  additional remission, number of patients: one
[4]; during the first 8-week period
  Complete remission, number of patients: two
[4]; patient presenting with CDAI>350 at baseline
  Complete remission, patients: 10%
[4]; week 4, LOCF, ITT population
  CDAI enhanced response (at least 100 pts decrease), patients: 5 (31.3%)
  CDAI response (at least 70 pts decrease), patients: 8 (50.0%)
[4]; [8]
  CDAI enhanced response (at least 100 pts decrease), patients: 5 (31.3%)
  CDAI response (at least 70 pts decrease), patients: 8 (50.0%)
[4]; week 4, Observed Cases, ITT population, listed as masitinib
  CDAI response (at least 70 pts decrease), patients: 50%
[4]; week 8, LOCF, ITT population
  CDAI enhanced response (at least 100 pts decrease), patients: 5 (31.3%)
  CDAI response (at least 70 pts decrease), patients: 7 (43.8%)
  Mean CDAI absolute change from baseline (SD): −59.9 (112.2)
  Median CDAI absolute change from baseline: −64.5
[4]; week 8, OC, ITT population
  Mean CDAI absolute change from baseline (SD): −86.0 (128.9)
  Median CDAI absolute change from baseline: −101.0
[4]; week 8, OC, ITT population, listed as masitinib
  Mean CDAI absolute change from baseline (SD): −86
[4]; week 8, OC, ITT, L1
  CDAI enhanced response (at least 100 pts decrease), patients: (100.0%)
  Mean CDAI absolute change from baseline: −153.0
  Median CDAI absolute change from baseline: −153.0
[4]; week 8, OC, ITT, L1, listed as masitinib
  CDAI enhanced response (at least 100 pts decrease), patients: 100%
[4]; week 8, OC, ITT, L2
  CDAI enhanced response (at least 100 pts decrease), patients: (0.0%)
  Mean CDAI absolute change from baseline: −50.0
  Median CDAI absolute change from baseline: −50.0
[4]; week 8, OC, ITT, L3
  CDAI enhanced response (at least 100 pts decrease), patients: (57.1%)
  Mean CDAI absolute change from baseline: −86.7
  Median CDAI absolute change from baseline: −103.0
[4]; week 8, OC, ITT, L3, listed as masitinib
  CDAI enhanced response (at least 100 pts decrease), patients: 57%
[4]; week 8, OC, ITT, patients naive or previously treated with corticosteroids (L1)
  CDAI response (at least 70 pts decrease), patients: (100.0%)
[4]; week 8, OC, ITT, patients previously treated with azathioprine (Immurel) or immunotherapy (L2)
  CDAI response (at least 70 pts decrease), patients: (50.0%)
[4]; week 8, OC, ITT, patients previously treated with biological agent (L3)
  CDAI response (at least 70 pts decrease), patients: (71.4%)
[4]; week 8, OC, ITT, patients previously treated with biological agent (L3), listed as masitinib
  CDAI response (at least 70 pts decrease), patients: 71%
[4]; [9]
  CDAI enhanced response (at least 100 pts decrease), patients: 5 (50.0%)
  CDAI response (at least 70 pts decrease), patients: 7 (70.0%)
  improvement of mean disease activity: 23%
[4]; [10]
  CDAI enhanced response (at least 100 pts decrease), patients: 50%
  CDAI response (at least 70 pts decrease), patients: 70%
[4]; [11]
  CDAI absolute change from baseline Mean (SD): −152.3 (78.5)
  CDAI absolute change from baseline, Median: −116.5
  CDAI enhanced response (at least 100 pts decrease), patients: 4 (66.7%)
  CDAI response (at least 70 pts decrease), patients: 6 (100.0%)
[4]; [12]
  CDAI enhanced response (at least 100 pts decrease), patients: 67%
  CDAI response (at least 70 pts decrease), patients: 100%
[5]
  FcεRI-mediated degranulation: inhibition of FcεRI-mediated degranulation
[6]; 8 weeks of observation, 4.5 or 6 mg/kg/day oral in two daily intakes
  tolerability: well tolerated; also recorded: well-tolerated
[6]; during the treatment
  patients who experienced at least one adverse event (AE): 94%
[6]; human, in vivo
  adverse event abdominal pain, patients: 22%
  adverse event asthenia, patients: 33%
  adverse event nausea, patients: 28%
  adverse event vomiting, patients: 33%
